Measurements from patent US12059407B2, “Compositions and methods for delivery of macromolecules” (The Regents of the University of California, priority 2017, dated 2024).

Tests used:
HEK293T cells [1] = assay: Cytotoxicity assay in HEK293T cells; format: cell-based
HEK293T cells [2] = assay: Model study with Saporin: protein delivery; format: cell-based; conditions: HEK293T cells treated with only Saporin or only compound 1

Substance	CC50 (HEK293T cells [1]) [µM]	cell death, single agent only (HEK293T cells [2])
Triton X	59	
Saporin		no cell death
